Reference: patent US20260000676A1, “CHROMAN DERIVATIVES AS ESTROGEN RECEPTOR DEGRADERS” (THE REGENTS OF THE UNIVERSITY OF MICHIGAN, priority 2022, published 2026)
Counter-ions that a name gives are not always drawn.

Columns and labels:
ER [1] = target: T1, ER (Homo sapiens (Human), UniProt P03372); assay: In-cell western (ICW) ER degradation assay in MCF-7 cells; assay type: cell-based; conditions: MCF7, 16 hrs; for Dmax: MCF7, maximal ER degradation; for DC50: ER degradation
Experimental: (§1) ERa degradative activity of compounds can be assessed in MCF-7 and T47D Cells. MCF-7 and T47D cell are seeded and are subsequently treated with the compounds at certain concentrations (e.g., 0.02 to 300 nM). DMSO can be used as vehicle control. Cells are fixed and are blocked with Intercept (PBS) Blocking Buffer (e.g., Li-COR, Odyssey Blocking Buffer), and are stained with ER (e.g., 1:500, Cell signaling) primary antibody for overnight at cold room. Secondary Antibody (e.g., IRDye 800CW Goat anti-Rabbit IgG) and CellTag 700 Stain are added in Intercept (PBS) Blocking Buffer. Finally, cell plate is placed in incubator to dry. Image and signal are captured on Odyssey® DLx Imaging System.
(§2) Day 3: After 16 hrs of compounds treatment, cells were fixed by 4% PFA and permeabilized with elution buffer (0.1% Triton X-100 in 1% PBS Solution). Subsequently, cells were blocked with Intercept (PBS) Blocking Buffer (Li-COR, Odyssey Blocking Buffer), and were stained with ER (1:500, Cell signaling) primary antibody for overnight at cold room.
(§3) Day 4: Remove the buffer, add IRDye 800CW Goat anti-Rabbit IgG Secondary Antibody (1:2000) and CellTag 700 Stain (1:500) in Intercept (PBS) Blocking Buffer. Finally, cell plate is placed in incubator to dry. Image and signal were captured on Odyssey® DLx Imaging System.

ER [2] = target: T1, ER; assay: In-cell western (ICW) ER degradation assay in T47D cells; assay type: cell-based; conditions: 16 hrs; for DC50: ER degradation; for Dmax: maximal ER degradation
Experimental: as §1, §2, §3

T1 sequence (P03372 whole entry): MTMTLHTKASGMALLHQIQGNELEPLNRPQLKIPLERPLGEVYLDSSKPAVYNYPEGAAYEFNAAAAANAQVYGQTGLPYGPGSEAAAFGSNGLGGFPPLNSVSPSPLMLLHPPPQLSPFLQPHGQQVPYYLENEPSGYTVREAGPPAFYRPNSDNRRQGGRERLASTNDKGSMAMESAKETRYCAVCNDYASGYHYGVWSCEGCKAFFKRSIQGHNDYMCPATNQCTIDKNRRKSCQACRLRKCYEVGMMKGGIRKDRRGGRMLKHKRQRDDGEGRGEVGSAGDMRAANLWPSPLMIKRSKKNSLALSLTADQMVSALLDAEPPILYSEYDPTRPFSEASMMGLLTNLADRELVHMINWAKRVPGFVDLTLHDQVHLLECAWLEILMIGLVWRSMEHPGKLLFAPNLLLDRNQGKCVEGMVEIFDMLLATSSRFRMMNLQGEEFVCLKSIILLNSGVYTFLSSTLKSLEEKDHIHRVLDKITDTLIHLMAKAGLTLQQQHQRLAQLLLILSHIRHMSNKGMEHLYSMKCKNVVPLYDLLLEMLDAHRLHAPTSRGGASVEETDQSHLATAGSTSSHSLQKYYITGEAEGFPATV

Row | Compound | Dmax (ER [1]) [%] | DC50 (ER [1]) [nM] | DC50 (ER [2]) [nM] | Dmax (ER [2]) [%]
1 | COc1ccc([C@H]2COc3cc(O)ccc3[C@H]2c2ccc(N3CCC(CN4CCN5c6ccc7c(c6OC[C@H]5C4)CN(C4CCC(=O)NC4=O)C7=O)CC3)cc2)cc1 (single isomer, unassigned) [Compound A16] | 50 to 75 |  |  | 
2 | O=C1CC[C@@H](N2Cc3cc4c(cc3C2=O)OC[C@H]2CN(CC3COC5(CCN(c6ccc(C7c8ccc(O)cc8OCC7c7ccccc7)cc6)CC5)C3)CCN42)C(=O)N1 (stereo in doubt) [Compound A139, (3R)-3-((4aR)-3-((8-(4-((3R,4S)-7-hydroxy-3-phenylchroman-4-yl)phenyl)-1-oxa-8-azaspiro[4.5]decan-3-yl)methyl)-8-oxo-1,2,3,4,4a, 5,8,10-octahydro-9H-pyrazino[1′,2′:4,5][1,4]oxazino[2,3-f]isoindol-9-yl)piperidine-2,6-dione] | 50 to 75 | < 1 | < 1 | 50 to 75
3 | O=C1CC[C@@H](N2Cc3c(ccc4c3OC[C@@H]3CN(CC5COC6(CCN(c7ccc([C@@H]8c9ccc(O)cc9OC[C@@H]8c8ccccc8)cc7F)CC6)C5)CCN43)C2=O)C(=O)N1 (single isomer, unassigned) [Compound A158, (3R)-3-((5aS)-7-((8-(2-fluoro-4-((3S,4R)-7-hydroxy-3-phenylchroman-4-yl)phenyl)-1-oxa-8-azaspiro[4.5]decan-3-yl)methyl)-1-oxo-1,3,5,5a,6,7,8,9-octahydro-2H-pyrazino[1′,2′:4,5][1,4]oxazino[2,3-e]isoindol-2-yl)piperidine-2,6-dione] | 50 to 75 |  |  | ≥ 75
4 | COc1cccc([C@H]2COc3cc(O)ccc3[C@H]2c2ccc(N3CCC(CN4CCN5c6ccc7c(c6OC[C@H]5C4)CN(C4CCC(=O)NC4=O)C7=O)CC3)cc2)c1 (single isomer, unassigned) [Compound A33, 3-((R)-7-((1-(4-((3S,4R)-7-hydroxy-3-(3-methoxyphenyl)chroman-4-yl)phenyl)piperidin-4-yl)methyl)-1-oxo-1,3,5,5a,6,7,8,9-octahydro-2H-pyrazino[1′,2′:4,5][1,4]oxazino[2,3-e]isoindol-2-yl)piperidine-2,6-dione] | 50 to 75 |  |  | 50 to 75
5 | O=C1CCC(N2Cc3cc4c(cc3C2=O)OC[C@@H]2CN(CC3CCN(c5ccc([C@@H]6c7ccc(O)cc7OC[C@@H]6c6ccccc6)cn5)CC3)CCN42)C(=O)N1 (single isomer, unassigned) [Compound A70, 3-((S)-3-((1-(5-((3S,4R)-7-hydroxy-3-phenylchroman-4-yl)pyridin-2-yl)piperidin-4-yl)methyl)-8-oxo-1,2,3,4,4a,5,8,10-octahydro-9H-pyrazino[1′,2′:4,5][1,4]oxazino[2,3-f]isoindol-9-yl)piperidine-2,6-dione] | < 25 |  |  | 25 to 50
6 | COc1cc(N2CCC(CN3CCC(c4ccc(N[C@H]5CCC(=O)NC5=O)cc4)CC3)CC2)ccc1[C@@H]1c2ccc(O)cc2OC[C@@H]1c1ccccc1 (stereo in doubt) [Compound A149, (S)-3-((4-(1-((1-(4-((3S,4R)-7-hydroxy-3-phenylchroman-4-yl)-3-methoxyphenyl)piperidin-4-yl)methyl)piperidin-4-yl)phenyl)amino)piperidine-2,6-dione] | 50 to 75 | < 1 | < 1 | 50 to 75
7 | COc1cc(N2CCC(CN3CCN4c5ccc6c(c5OC[C@@H]4C3)CN([C@@H]3CCC(=O)NC3=O)C6=O)CC2)ccc1[C@H]1c2ccc(O)cc2OC[C@H]1c1ccccc1 (single isomer, unassigned) [Compound A121, (R)-3-((S)-7-((1-(4-((3R,4S)-7-hydroxy-3-phenylchroman-4-yl)-3-methoxyphenyl)piperidin-4-yl)methyl)-1-oxo-1,3,5,5a, 6,7,8,9-octahydro-2H-pyrazino[1′,2′:4,5][1,4]oxazino[2,3-e]isoindol-2-yl)piperidine-2,6-dione] |  | < 1 | < 1 | 
8 | O=C1CCC(N2Cc3cc4c(cc3C2=O)OC[C@@H]2CN(CC3CCN(c5ccc([C@@H]6c7ccc(O)cc7OC[C@@H]6c6ccccc6)cc5)CC3)CCN42)C(=O)N1 (single isomer, unassigned) [Compound A1] | 50 to 75 | 1 to 10 |  | 
9 | O=C1CC[C@@H](N2Cc3c(ccc4c3OCC43CCN(CC4CC5(CCN(c6ccc([C@H]7c8ccc(O)cc8OC[C@H]7c7ccccc7)cc6)CC5)C4)CC3)C2=O)C(=O)N1 [Compound A143, (R)-3-(1′-((7-(4-((3R,4S)-7-hydroxy-3-phenylchroman-4-yl)phenyl)-7-azaspiro[3.5]nonan-2-yl)methyl)-6-oxo-6,8-dihydro-2H,7H-spiro[furo[2,3-e]isoindole-3,4′-piperidin]-7-yl)piperidine-2,6-dione] | 25 to 50 | 10 to 100 | 10 to 100 | 25 to 50
10 | O=C1CC[C@@H](N2Cc3c(ccc4c3OC[C@H]3CN(CC5CC6(CCN(c7ccc([C@@H]8c9ccc(O)cc9OC[C@@H]8c8ccccc8)cc7)CC6)C5)CCN43)C2=O)C(=O)N1 (single isomer, unassigned) [Compound A89] | ≥ 75 | < 1 | < 1 | ≥ 75
11 | O=C1CCC(N2Cc3cc4c(cc3C2=O)OCC42CCN(CC3CC4(CCN(c5ccc([C@@H]6c7ccc(O)cc7OC[C@@H]6c6ccccc6)cc5)CC4)C3)CC2)C(=O)N1 (stereo partly drawn) [Compound A71, 3-(1′-((7-(4-((3S,4R)-7-hydroxy-3-phenylchroman-4-yl)phenyl)-7-azaspiro[3.5]nonan-2-yl)methyl)-7-oxo-5,7-dihydro-2H,6H-spiro[furo[2,3-f]isoindole-3,4′-piperidin]-6-yl)piperidine-2,6-dione] | 50 to 75 | < 1 | < 1 | 50 to 75
12 | COc1ccc([C@H]2COc3cc(O)ccc3[C@H]2c2ccc(N3CCC(CN4CCN5c6ccc7c(c6OC[C@H]5C4)CN(C4CCC(=O)NC4=O)C7=O)CC3)cc2)cc1 (single isomer, unassigned) [Compound A16, 3-((R)-7-((1-(4-((3S,4R)-7-hydroxy-3-(4-methoxyphenyl)chroman-4-yl)phenyl)piperidin-4-yl)methyl)-1-oxo-1,3,5,5a, 6,7,8,9-octahydro-2H-pyrazino[1′,2′:4,5][1,4]oxazino[2,3-e]isoindol-2-yl)piperidine-2,6-dione] |  | < 1 |  | 
13 | O=C1CCC(N2Cc3cc4c(cc3C2=O)OCC42CCN(CC3CC4(CCN(c5ccc([C@H]6c7ccc(O)cc7OC[C@H]6c6ccccc6)cn5)CC4)C3)CC2)C(=O)N1 (stereo partly drawn) [Compound A123, 3-(1′-((7-(5-((3R,4S)-7-hydroxy-3-phenylchroman-4-yl)pyridin-2-yl)-7-azaspiro[3.5]nonan-2-yl)methyl)-7-oxo-5,7-dihydro-2H,6H-spiro[furo[2,3-f]isoindole-3,4′-piperidin]-6-yl)piperidine-2,6-dione] | 50 to 75 | < 1 | < 1 | 50 to 75
14 | O=C1CCC(N2Cc3cc4c(cc3C2=O)OC[C@@H]2CN(CC3CCN(c5ccc([C@@H]6c7ccc(O)cc7OC[C@@H]6c6ccccc6)cc5F)CC3)CCN42)C(=O)N1 (single isomer, unassigned) [Compound A2, 3-((S)-3-((1-(2-fluoro-4-((3S,4R)-7-hydroxy-3-phenylchroman-4-yl)phenyl)piperidin-4-yl)methyl)-8-oxo-1,2,3,4,4a, 5,8,10-octahydro-9H-pyrazino[1′,2′:4,5][1,4]oxazino[2,3-f]isoindol-9-yl)piperidine-2,6-dione] |  | 1 to 10 |  | 
15 | O=C1CCC(N2Cc3cc4c(cc3C2=O)OCC42CCN(CC3CCN(c4ccc([C@@H]5c6ccc(O)cc6OC[C@@H]5c5ccccc5)cc4)CC3)CC2)C(=O)N1 (stereo partly drawn) [Compound A86, 3-(1′-((1-(4-((3S,4R)-7-hydroxy-3-phenylchroman-4-yl)phenyl)piperidin-4-yl)methyl)-7-oxo-5,7-dihydro-2H,6H-spiro[furo[2,3-f]isoindole-3,4′-piperidin]-6-yl)piperidine-2,6-dione] |  |  | < 1 | 25 to 50
16 | O=C1CCC(N2C(=O)c3cc4c(cc3C2=O)CN(CC(=O)N2CCC3(CC2)CCN(c2ccc([C@@H]5c6ccc(O)cc6OC[C@@H]5c5ccccc5)cc2)CC3)C4)C(=O)N1 (single isomer, unassigned) [Compound A3] | 25 to 50 | 1 to 10 |  | 
17 | O=C1CCC(Nc2ccc3c(c2)OC[C@H]2CN(CC4CCN(c5ccc([C@@H]6c7ccc(O)cc7OC[C@@H]6c6ccccc6)cc5)CC4)CCN32)C(=O)N1 (single isomer, unassigned) [Compound A91, 3-(((R)-3-((1-(4-((3S,4R)-7-hydroxy-3-phenylchroman-4-yl)phenyl)piperidin-4-yl)methyl)-1,2,3,4,4a,5-hexahydrobenzo[b]pyrazino[1,2-d][1,4]oxazin-8-yl)amino)piperidine-2,6-dione hydrochloride] | 50 to 75 |  |  | 50 to 75
18 | O=C1CCC(N2Cc3cc4c(cc3C2=O)OC[C@@H]2CN(CC3CCN(c5ccc([C@@H]6c7ccc(O)cc7OC[C@@H]6c6ccccc6)cc5F)CC3)CCN42)C(=O)N1 (single isomer, unassigned) [Compound A2] | 50 to 75 |  |  | 
